From patent US12371454B2, “Cyclic peptide compound having Kras inhibitory action” (priority 2019, dated 2025)
Starred links: 1 amine or outer side, 2 acyl side, 3 side chain; linkers in the order of their positions; H or OH if unused. Positions of bridges follow the written chain, without caps; N, C: chain ends. Non-standard residues stand in square brackets, D forms with d. Residues, ends and D or L forms follow the SMILES beside them. *: point of attachment. hPhe(3-Cl-4-CF3) = N[C@@H](CCc1ccc(C(F)(F)F)c(Cl)c1)C(=O)O; NMePhe(4-CF3) = CN[C@@H](Cc1ccc(C(F)(F)F)cc1)C(=O)O; NMePhe(3-Me) = CN[C@@H](Cc1cccc(C)c1)C(=O)O; NMedβ3hAla = C[C@H](CC(=O)[*:2])N(C)[*:1]; NMeAla(cPent) = CN[C@@H](CC1CCCC1)C(=O)O; NMeGly(cPent) = CN[C@H](C(=O)O)C1CCCC1; NMeGly(cBu) = CN[C@H](C(=O)O)C1CCC1; NMeY = CN[C@@H](Cc1ccc(O)cc1)C(=O)O; Gly(cPent) = N[C@H](C(=O)O)C1CCCC1; NMeCha = CN[C@@H](CC1CCCCC1)C(=O)O; NMeChg = CN[C@H](C(=O)O)C1CCCCC1; X7 = O=C(CN(c1ccsc1)[*:1])[*:2]; NMeD = CN[C@@H](CC(=O)O)C(=O)O; NMeL = CN[C@@H](CC(C)C)C(=O)O; NMeNva = CCC[C@H](NC)C(=O)O; NMeV = CN[C@H](C(=O)O)C(C)C; d(β3hA) = C[C@@H](N)CC(=O)O; NMeAbu = CC[C@H](NC)C(=O)O; NMeS = CN[C@@H](CO)C(=O)O; Morpholide = C1CN(*)CCO1; NMeA = CN[C@@H](C)C(=O)O; Piperidide = C1CCN(*)CC1; Pyrrolidide = C1CCN(*)C1; Ac5c = NC1(C(=O)O)CCCC1; CF3 = FC(F)(F)*; Sar = CNCC(=O)O; Propyl = CCC*

Key:
[1] = biological target: T1, Kras and SOS1 (biotin-tagged human Kras loaded with GDP, His-tagged human SOS1) (Homo sapiens, UniProt P01116, G12D); assay: Protein-protein interaction inhibition between Kras and SOS1 (KrasGl2D-SOS PPI) using AlphaScreen; format: binding; settings: AlphaScreen; biotin-tagged human Kras loaded with GDP, His-tagged human SOS1; read-out: KRAS G12D-SOS PPI IC50
T1 construct: made in house; host or cells: E. coli (stated for Kras only)
Summary of the method: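 Energy transfer from nickel-chelate donor beads bound to His-SOS1 to streptavidin acceptor beads bound to biotin-Kras, expressed in E. coli and loaded with GDP after purification, was monitored. Donors were excited at 680 nm; singlet oxygen reaching acceptors gave emission read at 520-620 nm.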

[2] = system: Human pancreatic cancer cell line AsPC-1; assay: Measurement of AsPC-1 cell growth inhibition (AsPC-1 CGI); format: cell-based; settings: 96 h
Summary of the method: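 AsPC-1 cells in 15% FBS RPMI-1640 were exposed to test compound for 96 hours at 37° C, with CellTiter-Glo as endpoint.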

T1 sequence (P01116 1-188 isoform P01116-2 G12D): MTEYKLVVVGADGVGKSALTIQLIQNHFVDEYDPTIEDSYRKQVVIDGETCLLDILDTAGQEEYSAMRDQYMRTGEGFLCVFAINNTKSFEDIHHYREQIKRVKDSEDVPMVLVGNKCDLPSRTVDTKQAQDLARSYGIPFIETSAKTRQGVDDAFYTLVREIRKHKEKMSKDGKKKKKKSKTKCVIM

Structure (SMILES) | IC50 [1] [nM] | IC50 [2] [nM]
CC(C)C[C@H]1C(=O)N[C@@H](C2CCCC2)C(=O)N(C)CC(=O)N(C)CC(=O)N(C)[C@@H](CC2CCCCC2)C(=O)N(C)CC(=O)N[C@@H](CCc2ccc(C(F)(F)F)c(Cl)c2)C(=O)N2CCC[C@H]2C(=O)NC2(CCCC2)C(=O)N(C)[C@@H](C2CCCCC2)C(=O)N(C)[C@H](C(=O)N2CCCCC2)CC(=O)N1C [Compound 1824] ([NMeL][Gly(cPent)][Sar][Sar][NMeCha][Sar][hPhe(3-Cl-4-CF3)]P[Ac5c][NMeChg][NMeD]-Piperidide; lactam N-11) | 0.75 | 50 to 100
CC[C@H](C)[C@@H]1NC(=O)[C@H](CC(C)C)N(C)C(=O)C[C@@H](C)N(C)C(=O)[C@H](C(C)C)N(C)C(=O)C2(CCCC2)NC(=O)[C@@H]2CCCN2C(=O)[C@H](CCc2ccc(C(F)(F)F)c(Cl)c2)NC(=O)CN(C)C(=O)[C@H](Cc2cccc(C)c2)N(C)C(=O)CN(C)C(=O)CN(C)C1=O [Compound 1570] (cyclo([Ac5c][NMeV][NMedβ3hAla][NMeL]I[Sar][Sar][NMePhe(3-Me)][Sar][hPhe(3-Cl-4-CF3)]P)) | 4.3 | 50 to 100
CC[C@H](C)[C@@H]1NC(=O)[C@H](CC(C)C)N(C)C(=O)C[C@@H](C(=O)N2CCCCC2)N(C)C(=O)[C@H](C(C)C)N(C)C(=O)C2(CCCC2)NC(=O)[C@@H]2CCCN2C(=O)[C@H](CCc2ccc(C(F)(F)F)c(Cl)c2)NC(=O)CN(C)C(=O)[C@H](Cc2ccc(OC(F)(F)F)cc2)N(C)C(=O)CN(C)C(=O)CN(C)C1=O [Compound 1630] ([NMeL]I[Sar][Sar][NMeY](CF3)[Sar][hPhe(3-Cl-4-CF3)]P[Ac5c][NMeV][NMeD]-Piperidide; lactam N-11) | 6.2 | 100 to 500
CC[C@H](C)[C@@H]1NC(=O)[C@H](CC(C)C)N(C)C(=O)C[C@@H](C)NC(=O)[C@H](C2CCCC2)N(C)C(=O)C2(CCCC2)NC(=O)[C@@H]2CCCN2C(=O)[C@H](CCc2ccc(C(F)(F)F)c(Cl)c2)NC(=O)CN(C)C(=O)[C@H](Cc2ccc(C(F)(F)F)cc2)N(C)C(=O)CN(C)C(=O)CN(C)C1=O [Compound 1524] (cyclo([Ac5c][NMeGly(cPent)][d(β3hA)][NMeL]I[Sar][Sar][NMePhe(4-CF3)][Sar][hPhe(3-Cl-4-CF3)]P)) | 1.9 | 50 to 100
CC[C@H](C)[C@@H]1NC(=O)[C@H](CC(C)C)N(C)C(=O)C[C@@H](C(=O)N2CCCC2)N(C)C(=O)[C@H](C2CCCCC2)N(C)C(=O)C2(CCCC2)NC(=O)[C@@H]2CCCN2C(=O)[C@H](CCc2ccc(C(F)(F)F)c(Cl)c2)NC(=O)CN(C)C(=O)[C@H](Cc2ccc(C(F)(F)F)cc2)N(C)C(=O)CN(C)C(=O)CN(C)C1=O [Compound 1978] ([NMeL]I[Sar][Sar][NMePhe(4-CF3)][Sar][hPhe(3-Cl-4-CF3)]P[Ac5c][NMeChg][NMeD]-Pyrrolidide; lactam N-11) | 0.51 | 20 to 50
CC[C@H](C)[C@@H]1NC(=O)[C@H](C)N(C)C(=O)C[C@@H](C(=O)N2CCCCC2)N(C)C(=O)[C@H](C2CCC2)N(C)C(=O)C2(CCCC2)NC(=O)CN(c2ccsc2)C(=O)[C@H](CCc2ccc(C(F)(F)F)c(Cl)c2)NC(=O)CN(C)C(=O)[C@H](CC2CCCCC2)N(C)C(=O)CN(C)C(=O)CN(C)C1=O [Compound 2149] ([NMeA]I[Sar][Sar][NMeCha][Sar][hPhe(3-Cl-4-CF3)][X7][Ac5c][NMeGly(cBu)][NMeD]-Piperidide; lactam N-11) | 4 | > 500
CCC[C@H]1C(=O)N[C@@H]([C@@H](C)CC)C(=O)N(C)CC(=O)N(C)CC(=O)N(C)[C@@H](CC2CCCC2)C(=O)N(C)CC(=O)N[C@@H](CCc2ccc(C(F)(F)F)c(Cl)c2)C(=O)N2CCC[C@H]2C(=O)NC2(CCCC2)C(=O)N(C)[C@@H](C2CCCCC2)C(=O)N(C)[C@H](C(=O)N2CCOCC2)CC(=O)N1C [Compound 1998] ([NMeNva]I[Sar][Sar][NMeAla(cPent)][Sar][hPhe(3-Cl-4-CF3)]P[Ac5c][NMeChg][NMeD]-Morpholide; lactam N-11) | 0.75 | 100 to 500
CCCOC[C@H]1C(=O)N(C)CC(=O)N[C@@H](CCc2ccc(C(F)(F)F)c(Cl)c2)C(=O)N2CCC[C@H]2C(=O)NC2(CCCC2)C(=O)N(C)[C@@H](C2CCCCC2)C(=O)N(C)[C@H](C(=O)N2CCOCC2)CC(=O)N(C)[C@@H](CC)C(=O)N[C@@H]([C@@H](C)CC)C(=O)N(C)CC(=O)N(C)CC(=O)N1C [Compound 1896] ([NMeAbu]I[Sar][Sar][NMeS](Propyl)[Sar][hPhe(3-Cl-4-CF3)]P[Ac5c][NMeChg][NMeD]-Morpholide; lactam N-11) | 0.49 | 100 to 500
